One test concerns the target T1, TNKS1 (Homo sapiens, UniProt O95271).
T1 construct: purchased BPS Bioscience, San Diego, USA 80579 (TNKS1 Histone Ribosylation Assay Kit)
T1 sequence (O95271 1-1327): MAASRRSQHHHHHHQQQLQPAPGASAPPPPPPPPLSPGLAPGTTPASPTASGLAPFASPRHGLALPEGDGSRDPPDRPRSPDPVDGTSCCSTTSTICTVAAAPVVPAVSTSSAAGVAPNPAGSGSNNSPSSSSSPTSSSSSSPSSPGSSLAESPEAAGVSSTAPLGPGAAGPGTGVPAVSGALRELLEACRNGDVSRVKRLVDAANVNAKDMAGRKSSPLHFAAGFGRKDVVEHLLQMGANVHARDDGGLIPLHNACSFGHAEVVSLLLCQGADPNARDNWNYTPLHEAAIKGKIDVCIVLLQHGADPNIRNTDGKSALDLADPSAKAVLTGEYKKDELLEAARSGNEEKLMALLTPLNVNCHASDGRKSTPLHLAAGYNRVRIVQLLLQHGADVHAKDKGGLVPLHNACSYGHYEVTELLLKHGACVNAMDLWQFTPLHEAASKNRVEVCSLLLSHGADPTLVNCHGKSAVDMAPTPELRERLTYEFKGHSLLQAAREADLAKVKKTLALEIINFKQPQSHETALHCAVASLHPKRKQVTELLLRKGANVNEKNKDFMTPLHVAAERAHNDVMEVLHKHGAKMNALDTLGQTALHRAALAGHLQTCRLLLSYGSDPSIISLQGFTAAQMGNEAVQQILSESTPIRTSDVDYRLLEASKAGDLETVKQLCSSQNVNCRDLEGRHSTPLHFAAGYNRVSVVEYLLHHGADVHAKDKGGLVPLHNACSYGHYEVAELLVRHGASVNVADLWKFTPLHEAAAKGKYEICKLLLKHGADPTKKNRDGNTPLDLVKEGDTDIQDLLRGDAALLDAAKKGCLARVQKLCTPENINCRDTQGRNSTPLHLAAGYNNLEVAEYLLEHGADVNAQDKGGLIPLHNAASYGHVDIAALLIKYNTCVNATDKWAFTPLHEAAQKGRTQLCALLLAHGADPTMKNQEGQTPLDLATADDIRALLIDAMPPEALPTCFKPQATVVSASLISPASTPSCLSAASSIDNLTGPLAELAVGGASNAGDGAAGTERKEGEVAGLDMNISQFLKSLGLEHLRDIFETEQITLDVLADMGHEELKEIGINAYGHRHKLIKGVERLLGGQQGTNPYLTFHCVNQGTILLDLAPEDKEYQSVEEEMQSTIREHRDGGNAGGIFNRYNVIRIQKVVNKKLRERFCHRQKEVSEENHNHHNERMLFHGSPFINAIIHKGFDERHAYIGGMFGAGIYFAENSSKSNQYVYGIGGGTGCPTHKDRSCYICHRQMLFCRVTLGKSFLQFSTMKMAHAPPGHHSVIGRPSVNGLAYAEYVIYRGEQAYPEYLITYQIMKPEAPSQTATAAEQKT
Kind of test: TNKS1 Assay B (auto-parsylation, [3H]-NAD+ SPA). Conditions: 6 nM TNKS1, auto-parsylation, over night at room temperature. The test is classed as biochemical.

Test [1] relates to HEK293 cells cotransfected with the FOP control vector. Kind of test: HEK293 FOP assay (control reporter with non-functional TCF elements). It is filed as cell-based. Conditions: Homo sapiens, 16 hours. The method in brief: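 Stable HEK293 line carrying FOP control reporter (randomized non-functional TCF sites, with pcDNA3), Geneticin-selected, plated 24 h before assay. Stimulated with recombinant human Wnt-3a (2500-5 ng/ml) and compounds 50 μM–15 nM (3.16-fold steps) in CAFTY buffer pH 7.4 with 2 mM Ca2+, 0.01% BSA, run parallel to TOP line.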

For `O=C(NC1CC1)c1nc[nH]c1C(=O)N[C@H]1CC[C@@]2(CCN(c3cccc(Cl)c3)C2=O)CC1` [Example 279, N^5-[(trans)-2-(3-chlorophenyl)-1-oxo-2-azaspiro[4.5]dec-8-yl]-N^4-cyclopropyl-1H-imidazole-4,5-dicarboxamide], the IC50 (usually the midpoint of a concentration-inhibition curve) was 290 nM at TNKS1 and not below 50000 nM in test [1].
The matching figures for `O=C(NCC(F)(F)F)c1nc[nH]c1C(=O)N[C@H]1CC[C@@]2(CCN(c3cc(F)c(F)cc3Cl)C2=O)CC1` [Example 201, N^5-[(trans)-2-(2-chloro-4,5-difluorophenyl)-1-oxo-2-azaspiro[4.5]dec-8-yl]-N^4-(2,2,2-trifluoroethyl)-1H-imidazole-4,5-dicarboxamide]: 5.5 nM and 22000 nM.
The matching figures for `Cc1cc(C)n2ncc(C(=O)N[C@H]3CC[C@]4(CCN(c5ccc(F)cc5)C4=O)CC3)c2n1` [Example 208, N-[(cis)-2-(4-fluorophenyl)-1-oxo-2-azaspiro[4.5]dec-8-yl]-5,7-dimethyl pyrazolo[1,5-a]pyrimidine-3-carboxamide]: 5600 nM and not below 50000 nM.
The matching figures for `CNC(=O)c1nc[nH]c1C(=O)N[C@H]1CC[C@@]2(CCN(c3cc(F)c(F)cc3Cl)C2=O)CC1` [Example 196, N^5-[(trans)-2-(2-chloro-4,5-difluorophenyl)-1-oxo-2-azaspiro[4.5]dec-8-yl]-N^4-methyl-1H-imidazole-4,5-dicarboxamide]: 6.7 nM and 35000 nM.
Regarding `CNC(=O)c1nc[nH]c1C(=O)N[C@H]1CC[C@@]2(CCN(c3cccc(Cl)c3)C2=O)CC1` [Example 276, N^5-[(trans)-2-(3-chlorophenyl)-1-oxo-2-azaspiro[4.5]dec-8-yl]-N^4-methyl-1H-imidazole-4,5-dicarboxamide], the figures for the 50% inhibitory concentration (IC50) (on TNKS1; in test [1]) were 180 nM and 32000 nM, respectively.
The matching figures for `Cc1cc(C)n2ncc(C(=O)N[C@H]3CC[C@@]4(CCN(c5cc(C)c(F)cc5Cl)C4=O)CC3)c2n1` [Example 266, N-[(trans)-2-(2-chloro-4-fluoro-5-methylphenyl)-1-oxo-2-azaspiro[4.5]dec-8-yl]-5,7-dimethylpyrazolo[1,5-a]pyrimidine-3-carboxamide]: 20 nM and not below 50000 nM.
The matching figures for `O=C(N[C@H]1CC[C@H](C(=O)N(CC2CC2)c2ccc(F)cc2Cl)CC1)c1cnn2cccnc12` [Example 177, N-{trans-4-[(2-chloro-4-fluorophenyl)(cyclopropylmethyl)carbamoyl]cyclohexyl}pyrazolo[1,5-a]pyrimidine-3-carboxamide]: 13 nM and 40000 nM.
The matching figures for `CC1CCN(CCNC(=O)c2nc[nH]c2C(=O)N[C@H]2CC[C@@]3(CCN(c4ccccc4Cl)C3=O)CC2)CC1` [Example 260, N^5-[(trans)-2-(2-chlorophenyl)-1-oxo-2-azaspiro[4.5]dec-8-yl]-N^4-[2-(4-methylpiperidin-1-yl)ethyl]-1H-imidazole-4,5-dicarboxamide]: 7.4 nM and not below 50000 nM.
In the case of `O=C(N[C@H]1CC[C@@]2(CCN(c3cccc(Cl)c3)C2=O)CC1)c1cnc2cccnn12` [Example 269, N-[(trans)-2-(3-chlorophenyl)-1-oxo-2-azaspiro[4.5]dec-8-yl]imidazo[1,2-b]pyridazine-3-carboxamide], the half-maximal inhibitory concentration (IC50) on TNKS1 is 800 nM; in test [1], not below 50000 nM.
The matching figures for `O=C(N[C@H]1CC[C@@]2(CCN(c3cc(F)c(F)cc3Cl)C2=O)CC1)c1[nH]cnc1C(=O)N1CC(F)C1` [Example 200, N-[(trans)-2-(2-chloro-4,5-difluorophenyl)-1-oxo-2-azaspiro[4.5]dec-8-yl]-4-[(3-fluoroazetidin-1-yl)carbonyl]-1H-imidazole-5-carboxamide]: 6.9 nM and 30000 nM.
For `Cc1cc(N(C)C(=O)[C@H]2CC[C@H](NC(=O)c3cnn4cccnc34)CC2)c(Cl)cc1F` [Example 176, N-{trans-4-[(2-chloro-4-fluoro-5-methylphenyl)(methyl)carbamoyl]cyclohexyl}pyrazolo[1,5-a]pyrimidine-3-carboxamide], the 50% inhibitory concentration (IC50) against TNKS1 came to 160 nM; in test [1], 5300 nM.
The matching figures for `O=C(N[C@H]1CC[C@@]2(CCN(c3ccc(F)cc3Cl)C2=O)CC1)c1cnn2ccc(N3CCCC3)nc12` [Example 232, N-[(trans)-2-(2-chloro-4-fluorophenyl)-1-oxo-2-azaspiro[4.5]dec-8-yl]-5-(pyrrolidin-1-yl)pyrazolo[1,5-a]pyrimidine-3-carboxamide]: 8.5 nM and not below 50000 nM.
With `COCCNC(=O)c1nc[nH]c1C(=O)N[C@H]1CC[C@@]2(CCN(c3cc(F)c(F)cc3Cl)C2=O)CC1` [Example 202, N^5-[(trans)-2-(2-chloro-4,5-difluorophenyl)-1-oxo-2-azaspiro[4.5]dec-8-yl]-N^4-(2-methoxyethyl)-1H-imidazole-4,5-dicarboxamide], the figures for the IC50 (at TNKS1; in test [1]) were 7.3 nM and 39000 nM, respectively.
Consider `O=C(NC1CCC2(CC1)CCN(c1cc(F)c(F)cc1Cl)C2=O)c1cnn2cccnc12` (single isomer, unassigned; isomer 1) [Example 168, N-[2-(2-chloro-4,5-difluorophenyl)-1-oxo-2-azaspiro[4.5]dec-8-yl]pyrazolo[1,5-a]pyrimidine-3-carboxamide (isomer 1)], for which the figures for the half-inhibitory concentration (IC50) (against TNKS1; in test [1]) were 7.3 nM and not below 50000 nM, respectively.
The matching figures for `CCNC(=O)c1nc[nH]c1C(=O)N[C@H]1CC[C@H](C(=O)Nc2ccc(F)cc2Cl)CC1` [Example 15, N^5-{trans-4-[(2-chloro-4-fluorophenyl)carbamoyl]cyclohexyl}-N^4-ethyl-1H-imidazole-4,5-dicarboxamide]: 52 nM and not below 50000 nM.
The matching figures for `O=C(N[C@H]1CC[C@@]2(CCN(c3ccc(F)cc3Cl)C2=O)CC1)c1nc[nH]c1C(=O)NCC(F)(F)F` [Example 195, N^4-[(trans)-2-(2-chloro-4-fluorophenyl)-1-oxo-2-azaspiro[4.5]dec-8-yl]-N^5-(2,2,2-trifluoroethyl)-1H-imidazole-4,5-dicarboxamide]: 11 nM and not below 50000 nM.
For `Cc1cnc2c(C(=O)N[C@H]3CC[C@@]4(CCN(c5ccc(F)cc5)C4=O)CC3)cnn2c1` [Example 210, N-[(trans)-2-(4-fluorophenyl)-1-oxo-2-azaspiro[4.5]dec-8-yl]-6-methylpyrazolo[1,5-a]pyrimidine-3-carboxamide], the IC50 turned out to be 390 nM at TNKS1 and 25000 nM in test [1].
The matching figures for `CC(C)(C)OC(=O)N1CCN(c2ccn3ncc(C(=O)N[C@H]4CC[C@@]5(CCN(c6ccc(F)cc6Cl)C5=O)CC4)c3n2)CC1` [Example 225, tert-butyl 4-(3-{[(trans)-2-(2-chloro-4-fluorophenyl)-1-oxo-2-azaspiro[4.5]dec-8-yl]carbamoyl}pyrazolo[1,5-a]pyrimidin-5-yl)piperazine-1-carboxylate]: 6 nM and not below 50000 nM.
The matching figures for `CNC(=O)c1nc[nH]c1C(=O)N[C@H]1CC[C@H](C(=O)N(C)c2ccc(F)cc2Cl)CC1` [Example 173, N^5-{trans-4-[(2-chloro-4-fluorophenyl)(methyl)carbamoyl]cyclohexyl}-N^4-methyl-1H-imidazole-4,5-dicarboxamide]: 200 nM and not below 50000 nM.
Turning to `COCCNC(=O)c1nc[nH]c1C(=O)N[C@H]1CC[C@H](C(=O)Nc2ccc(F)cc2Cl)CC1` [Example 19, N^5-{trans-4-[(2-chloro-4-fluorophenyl)carbamoyl]cyclohexyl}-N^4-(2-methoxyethyl)-1H-imidazole-4,5-dicarboxamide], the 50% inhibitory concentration (IC50) against TNKS1 was 120 nM; in test [1], not below 50000 nM.
